Experimental data as given in PubChem BioAssay AID1963847 (Molecular Pharmacology Branch, DTP, NCI, 2024).
“And” between values parts separate entries of the source, which are not always exact repeats. Identical values can stand only once.

Test system: 415267-285-R-J2-PDC complex spheroid viability
Test: Anticancer human tumor 415267-285-R-J2-PDC patient-derived breast carcinoma cell line growth inhibition [POLQ]
Conditions: for viability, T/C: stronger effect = lower value
Description: Multicellular complex tumor spheroid response to Polymerase (POL) inhibitors (novobiocin, ART-558, RP6685) in combination with a variety of drugs and investigational agents in selected tumor cell lines
The POL inhibitors (novobiocin, ART-558, and RP6685) were evaluated both individually and in combination with standard of care and investigational anticancer small molecules within a complex spheroid model of solid tumors. . Complex spheroids include a stromal component modeled by human endothelial cells (HUVEC) and fibroblasts modeled by human mesenchymal stem cells (MSCs). The concentration ranges selected for each drug and investigational agent were based upon clinically achievable concentrations if the clinical Cmax of the agent was known.
Compounds. The drugs and investigational agents: novobiocin (NSC847541), ART-558 (NSC835418), RP-6685 (NSC848927), peposertib (NSC802822), ceralasertib (NSC780249), elimusertib (NSC800525), camonsertib (NSC841442), AZD-1390 (NSC803789), olaparib (NSC753686), talazoparib (NSC767125), rucaparib (NSC756644), sotorasib (NSC818433), MRTX-1133 (NSC836407), SN-38 (NSC673596), topotecan (NSC609699), epotoside (NSC141540), doxorubicin (NSC123127), gemcitabine (NSC613327), 5-fluorouracil (NSC19893), paclitaxel (NSC125973), vemurafenib (NSC761431), MSA-2 (NSC828583), SN-011 (NSC837082), adavosertib (NSC754352), prexasertib (NSC758257), carboplatin (NSC241240) and oxaliplatin (NSC266046), were obtained from the National Cancer Institute (NCI) Developmental Therapeutics Program Chemical Repository (21). The FDA-approved anticancer drug set is available from the Developmental Therapeutics Program at https://dtp.cancer.gov/organization/dscb/obtaining/. […] The stock solutions were prepared in dimethyl sulfoxide (DMSO, Sigma-Aldrich, St. Louis, MO, cat. D2650), except for the platinum compounds which were prepared in saline (Quality Biological, Gaithersburg, MD, cat. 114-055-101), at 800-fold the tested concentration and stored at -70 degrees C prior to their use. All drugs and investigational agents were tested over a range starting from a high concentration at or near the clinical Cmax and decreasing in half-log increments. If the clinical Cmax for an agent had not been determined, the highest concentration tested was 10 microM, except for SN-38, which was tested at a high concentration of 1 microM.
Cell Culture. All cells were maintained in an incubator at 37 degrees C and 5% CO2 with 95% humidity. The PDC lines were cultured according to standard operating procedures established by the NCI PDMR (https://pdmr.cancer.gov). Table 3 of the manuscript, lists the cell lines along with the number of the three cell types plated to form the mct-spheroids and media for tumor cell growth. After thawing, all PDC lines, except 997537-175-T-J1-PDC and 415267-285-R-J2-PDC, were cultured in Matrigel-coated flasks prepared with a working solution of 1X Ham's F-12 nutrient mix, without supplementation (Thermo Fisher Scientific, cat. 11765054), 100 U/mL penicillin-streptomycin (Thermo Fisher Scientific, cat. 15140122), and 2.5% Matrigel (Corning Inc., Corning, NY, cat. 354248) for the first three passages. The two PDC lines 997537-175-T-J1-PDC and 415267-285-R-J2-PDC were cultured on uncoated flasks. The 857933-349-R-J2-PDC line was cultured in 6C/Colon 1B media containing advanced DMEM/F-12 (Thermo Fisher Scientific, cat. 12634028), 10 mM HEPES (Thermo Fisher Scientific, cat. 15630080), 1X GlutaMAX supplement (Thermo Fisher Scientific, cat. 35050061), 0.1 mg/mL primocin (InvivoGen, San Diego, CA, cat. ant-pm-2), 10% defined fetal bovine serum, heat inactivated (HyClone Laboratories Inc., Logan, UT, cat. SH30070.03HI), 50% L-WRN conditioned media (ATCC, cat. CRL-3276), 1.25 mM N-Acetyl-L-cysteine (Sigma-Aldrich, cat. A9165), 10 mM nicotinamide (Sigma-Aldrich, cat. N0636), 1X B-27 supplement (Thermo Fisher Scientific, cat. 17504044), 1X N-2 supplement (Thermo Fisher Scientific, cat. […]
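Further: spheroids exposed to compounds for one week before readout.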
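Wherever viability, T/C is given: luminescence used as stand-in measure of viable cells; 100% = DMSO vehicle control viability.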

With `COc1cccc(OCCCN)c1-c1cc(Nc2cnc(C#N)cn2)n[nH]1` + COC1C(OC(N)=O)C(O)C(Oc2ccc3c(O)c(NC(=O)c4ccc(O)c(CC=C(C)C)c4)c(=O)oc3c2C)OC1(C)C the IC50 (curve of first compound, second compound 0.0316 µM) was < 3.16 nM, the IC50 (curve of first compound, second compound 0.1 µM) was < 3.16 nM and the IC50 (curve of first compound, second compound 0.316 µM) was < 3.16 nM. The IC50 (curve of first compound, second compound 1 µM) was 3.68 nM, the IC50 (curve of first compound, second compound 3.16 µM) was 3.6 nM and the IC50 (curve of first compound, second compound 10 µM) was 3.84 nM. The viability, T/C (second compound 0.0316 µM, first compound 0.00316 µM) was 41.4%, the viability, T/C (second compound 0.0316 µM, first compound 0.01 µM) was 14.1% and the viability, T/C (second compound 0.0316 µM, first compound 0.0316 µM) was 7.52%. The viability, T/C (second compound 0.0316 µM, first compound 0.1 µM) was 8.68%, the viability, T/C (second compound 0.0316 µM, first compound 0.316 µM) was 6.7% and the viability, T/C (second compound 0.0316 µM, first compound 1 µM) was 4.81%. It also gave a viability, T/C (second compound 0.1 µM, first compound 0.00316 µM) of 40.2%, a viability, T/C (second compound 0.1 µM, first compound 0.01 µM) of 10.2% and a viability, T/C (second compound 0.1 µM, first compound 0.0316 µM) of 7.65%. For the same compound, the viability, T/C (second compound 0.1 µM, first compound 0.1 µM) was 6.8%, the viability, T/C (second compound 0.1 µM, first compound 0.316 µM) was 6.5% and the viability, T/C (second compound 0.1 µM, first compound 1 µM) was 5.69%. For the same compound, the viability, T/C (second compound 0.316 µM, first compound 0.00316 µM) was 46.9%, the viability, T/C (second compound 0.316 µM, first compound 0.01 µM) was 8.13% and the viability, T/C (second compound 0.316 µM, first compound 0.0316 µM) was 8.41%. For the same compound, the viability, T/C (second compound 0.316 µM, first compound 0.1 µM) was 6.89%, the viability, T/C (second compound 0.316 µM, first compound 0.316 µM) was 7.31% and the viability, T/C (second compound 0.316 µM, first compound 1 µM) was 4.55%. For the same compound, the viability, T/C (second compound 1 µM, first compound 0.00316 µM) was 56.2%, the viability, T/C (second compound 1 µM, first compound 0.01 µM) was 9.03% and the viability, T/C (second compound 1 µM, first compound 0.0316 µM) was 7.11%. The viability, T/C (second compound 1 µM, first compound 0.1 µM) was 7.02%, the viability, T/C (second compound 1 µM, first compound 0.316 µM) was 5.8% and the viability, T/C (second compound 1 µM, first compound 1 µM) was 4.41%. For the same compound, the viability, T/C (second compound 3.16 µM, first compound 0.00316 µM) was 55.3%, the viability, T/C (second compound 3.16 µM, first compound 0.01 µM) was 8.65% and the viability, T/C (second compound 3.16 µM, first compound 0.0316 µM) was 7.11%. For the same compound, the viability, T/C (second compound 3.16 µM, first compound 0.1 µM) was 7.79%, the viability, T/C (second compound 3.16 µM, first compound 0.316 µM) was 5.22% and the viability, T/C (second compound 3.16 µM, first compound 1 µM) was 5.51%. The viability, T/C (second compound 10 µM, first compound 0.00316 µM) was 58.6%, the viability, T/C (second compound 10 µM, first compound 0.01 µM) was 7.45% and the viability, T/C (second compound 10 µM, first compound 0.0316 µM) was 7.04%. It also gave a viability, T/C (second compound 10 µM, first compound 0.1 µM) of 6.59%, a viability, T/C (second compound 10 µM, first compound 0.316 µM) of 6.37% and a viability, T/C (second compound 10 µM, first compound 1 µM) of 5.49%.
In the case of `COc1ccc([C@@H](O)c2cc(-c3ncnc4cc(N5CCOCC5)ccc34)c(F)cc2Cl)nn1`, the viability, T/C (compound 0.0316 µM) is reported as 95.9% and 109% and 85.5%, the viability, T/C (compound 0.1 µM) is reported as 113% and 97.3% and 88.6% and the viability, T/C (compound 0.316 µM) is reported as 95.8% and 98.6% and 91.6%. The viability, T/C (compound 1 µM) was 95.5% and 92.4% and 92.3%, the viability, T/C (compound 3.16 µM) was 86% and 89.3% and 87.6% and the viability, T/C (compound 10 µM) was 40.4% and 53.2% and 40.9%. For the same compound, the IC50 (curve of compound) was 7850 nM and > 10000 nM and 7990 nM.
For `COc1cc2cc(C(=O)CCC(=O)O)sc2cc1OC`, the viability, T/C (compound 0.0316 µM) was 99.2% and 104% and 92.9%, the viability, T/C (compound 0.1 µM) was 101% and 104% and 90.8% and the viability, T/C (compound 0.316 µM) was 93.2% and 88% and 110%. The viability, T/C (compound 1 µM) was 104% (2×) and 99.6%, the viability, T/C (compound 3.16 µM) was 94.7% and 99.9% and 99.6% and the viability, T/C (compound 10 µM) was 111% and 99.6% and 109%. The IC50 (curve of compound) was > 10000 nM.
In the case of `COc1cccc2c1C(=O)c1c(O)c3c(c(O)c1C2=O)CC(O)(C(=O)CO)CC3OC1CC(N)C(O)C(C)O1` (stereo unspecified), the viability, T/C (compound 0.0316 µM) is reported as 35.4% and 85.5% and 41%, the viability, T/C (compound 0.1 µM) is reported as 9.21% and 18.3% and 12.6% and the viability, T/C (compound 0.316 µM) is reported as 5.21% and 3.68% and 5.75%. For the same compound, the viability, T/C (compound 1 µM) was 0.77% and 1.01% and 0.92%, the viability, T/C (compound 3.16 µM) was 2.13% and 1.47% and 1.31% and the viability, T/C (compound 10 µM) was 2.79% and 3.72% and 2.89%. For the same compound, the IC50 (curve of compound) was < 31.6 nM and 58.1 nM.
For `Nc1ccn(C2OC(CO)C(O)C2(F)F)c(=O)n1` (stereo unspecified), the viability, T/C (compound 0.1 µM) was 5.29% and 5.02% and 7.12%, the viability, T/C (compound 0.316 µM) was 6.27% and 4.87% and 6.14% and the viability, T/C (compound 1 µM) was 5.28% and 7.75% and 7.66%. For the same compound, the viability, T/C (compound 3.16 µM) was 5.29% and 4.37% and 5.37%, the viability, T/C (compound 10 µM) was 6.07% and 4.68% and 5.14% and the IC50 (curve of compound) was < 31.6 nM.
With `CCc1c2c(nc3ccc(O)cc13)-c1cc3c(c(=O)n1C2)COC(=O)[C@]3(O)CC` the viability, T/C (compound 0.00316 µM) was 32.2% and 58.6% and 31.9%, the viability, T/C (compound 0.01 µM) was 9.97% and 8.74% and 13.6% and the viability, T/C (compound 0.0316 µM) was 5.41% and 4.4% and 6.58%. The viability, T/C (compound 0.1 µM) was 4.94% and 2.95% and 3.9%, the viability, T/C (compound 0.316 µM) was 2.72% and 1.83% and 3.74% and the viability, T/C (compound 1 µM) was 1.69% and 0.99% and 1.42%. The IC50 (curve of compound) was < 3.16 nM and 3.85 nM.
